In one assay the target is T1, Smc3 head domain (Saccharomyces cerevisiae, UniProt P47037).
T1 construct: C′ terminal (amino acids 1001-1230); linker […]; made in house; host or cells: E. coli BL21
T1 sequence (P47037 with tags, fused parts or gaps): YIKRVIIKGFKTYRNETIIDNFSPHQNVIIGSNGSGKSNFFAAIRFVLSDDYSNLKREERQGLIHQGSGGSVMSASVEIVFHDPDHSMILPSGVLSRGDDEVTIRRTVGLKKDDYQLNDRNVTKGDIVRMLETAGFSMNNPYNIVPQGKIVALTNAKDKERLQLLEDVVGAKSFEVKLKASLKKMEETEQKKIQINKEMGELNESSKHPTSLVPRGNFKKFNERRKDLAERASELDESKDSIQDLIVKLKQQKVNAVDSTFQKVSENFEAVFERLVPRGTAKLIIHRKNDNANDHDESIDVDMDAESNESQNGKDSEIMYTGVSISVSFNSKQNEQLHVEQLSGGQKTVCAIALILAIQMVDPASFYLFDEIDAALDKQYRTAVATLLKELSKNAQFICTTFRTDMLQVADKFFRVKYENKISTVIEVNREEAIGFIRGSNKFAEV
Description: Field-effect biosensing (FEB Agile R100) binding of peptide to Smc3 head domain. As to conditions: 500 nM peptide immobilized on graphene chip, Hill fit or kon/koff. The method, then: Accordingly, we explored the ability of CIP3 to bind Smc3 in-vitro. We synthesized CIP3-TAT and purified it (Figures S2A and S2B. Purification of CIP3-TAT and Smc3 head domain, related to Figure 3), and the kinetic binding of the peptide to a purified Smc3 head domain (Figures S2C and S2D. Purification of CIP3-TAT and Smc3 head domain, related to Figure 3) was explored by FEB Agile R100 (Figures 3C and 3D). The binding kinetics is determined by measuring the current of the chip that is changed when the analyzed molecules form a complex. The peptide was immobilized on the sensor chip, and the analyte, purified Smc3 head domain, was applied in solution to the chip. The changes in the current were monitored as increasing concentrations of analyte were applied to the chip. […]
The binding kinetics of cohesin-inhibiting peptide 3 (CIP3) to Smc3 were measured by field-effect biosensing (FEB) Agile R100 label-free binding assay (Cardea), following their standard protocol, and as we have done previously,.[65]^,[66]^,[67] […] Next, PBS was aspirated, and the changes in the baseline current were monitored in real-time, using 20 μM, 50 μM, 100 μM, 200 μM, 500 μΜ, 1000 μM, 1500 μM, 2000 μM, and 4000 μM of purified Smc3 head domain. Kd values were calculated using DataLINE 2.0 software by applying either a Hill equation fit or using kon and koff values at a single concentration. […]

In the next assay the test system is yeast cells, G2/M. The experiment in a line: Chromosome condensation by two-photon microscopy. In kind it is cell-based. Conditions: nuclear-integrated density divided by circumference, at least 40 nuclei. Here is the method: Chromosome condensation depends on cohesin. However, this cohesin function can be separated from sister chromatid cohesion activity.[45]^,[46] We tested this possibility by analyzing chromatin in G2/M cells via two-photon microscopy.[47]^,[48] Cells were grown and treated as before.
The method is described in.[47]^,[48] Briefly, cells were grown to mid-log phase. Two-photon microscopy of live cells was performed with the LSM780 (Zeiss) inverted confocal microscope, using the Chameleon Vision II (Coherent) multiphoton laser (3 W, pulse width 140 fs at peak, repetition rate 80 MHz, tuning range 680-1080 nm, excitation 768 nm/image collection 512 nm). Slides were visualized with X63 N/A 1.4 objective lenses. Cells in G2/M were selected based on their morphology. Images were analyzed using Image J processing software. The condensation level is represented by the division of the nuclear-integrated density by its circumference. The significance between conditions was determined by using Student's t-test.

Results on 1 sequence are retold here after article PMC10470313, “Developing a peptide to disrupt cohesin head domain interactions” (iScience, 2023).

Where no end group is shown, it is not given here.

For KRFKDMEYLSGGEKTGGYGRKKRRQRRR [CIP3-TAT], the Kd (in general, a measure of binding affinity in units of concentration) amounted to 544.2 ± 0.06 nM at Smc3 head domain (with ATP (10 mM), Smc3 incubated with ATP before measuring, Smc3 head domain 20-4000 μM (0.02–4 mM)) and 53.86 ± 0.03 nM at Smc3 head domain (without ATP, Smc3 head domain 20-4000 μM (0.02–4 mM) in PBS). In addition, the “chromatin condensation” value in the assay with yeast cells, G2/M is listed as “chromatin was decondensed in comparison with the untreated cells”.
